In patent US10334851B2, “Herbicidal isoxazolo[5,4-B]pyridines” (BASF SE, priority 2010, dated 2019):

Key:
Assay type in all cases: in vivo
Chenopodium album = test: Greenhouse post-emergence treatment of Chenopodium album (fat-hen); settings: for pest or weed control at 1000 g/ha / damage: application rate 1.0 kg/ha; for damage: scale 0 to 100
Text: (§1) The seeds of the test plants were sown separately for each species. For the post-emergence treatment, the test plants were first grown to a height of 3 to 15 cm, depending on the plant habit, and only then treated with the active ingredients which had been suspended or emulsified in water. For this purpose, the test plants were either sown directly and grown in the same containers, or they were first grown separately as seedlings and transplanted into the test containers a few days prior to treatment. Depending on the species, the plants were kept at 10-25° C. or 20-35° C. The test period extended over 2 to 4 weeks. During this time, the plants were tended, and their response to the individual treatments was evaluated. Evaluation was carried out using a scale from 0 to 100. 100 means no emergence of the plants, or complete destruction of at least the aerial moieties, and 0 means no damage, or normal course of growth. A good herbicidal activity is given at values of at least 80 and a very good herbicidal activity is given at values of at least 90. The plants used in the greenhouse experiments belonged to the following species: [table]

[1] = test system: Amaranthus retroflexus L.; test: Greenhouse post-emergence treatment of Amaranthus retroflexus L. (pigweed); settings: for pest or weed control at 1000 g/ha / damage: application rate 1.0 kg/ha; for damage: scale 0 to 100
Text: as §1

Abutilon theophrasti = test: Greenhouse post-emergence treatment of Abutilon theophrasti (velvetleaf); settings: scale 0 (no damage) to 100 (complete destruction); for pest or weed control at 3000 g/ha: Abutilon theophrasti
Text: as §1

[2] = scale 0 to 100, read-out: damage
[3] = application rate 0.927 kg/ha, scale 0 to 100, read-out: damage

SMILES	damage (Chenopodium album)	damage [1]	damage (Abutilon theophrasti; application rate 3.0 kg/ha)	other results
NC(=O)c1cc(C2CC2)nc2onc(C3CC3)c12 [I.4.63]				pest or weed control at 1000 g/ha (Chenopodium album; [2]): 100%; pest or weed control at 1000 g/ha [1, 2]: 100%
O=C(O)c1cc(C2(F)CC2)nc2onc(-c3ccc(OC(F)F)cc3)c12 [I.7.65]	100%	100%		
CCCCOc1ccc(-c2noc3nc(C4CC4)cc(C(=O)O)c23)cc1 [I.2.63]	100%	100%		
COc1cccc(-c2noc3nc(C4CC4)cc(C(=O)O)c23)c1 [I.2.22]			100%	
CC#CCOC(=O)c1cc(C2CC2)nc2onc(C)c12 [I.1.68]			100%	
O=C(O)c1cc(C2CC2)nc2onc(C3CCCCC3)c12 [I.2.26]				pest or weed control at 3000 g/ha (Abutilon theophrasti; application rate 3.0 kg/ha): 100%
O=C(O)c1cc(C2CC2)nc2onc(-c3ccc(F)cc3)c12 [I.2.51]	100%	100%		
O=C(O)c1cc(C2CC2(F)F)nc2onc(C3CC3)c12 (centres unmarked) [I.7.55]				pest or weed control at 1000 g/ha (Chenopodium album; [2]): 100%; pest or weed control at 1000 g/ha [1, 2]: 100%
CC(C)(C)c1noc2nc(C3(F)CC3)cc(C(=O)O)c12 [I.7.64]				pest or weed control at 1000 g/ha (Chenopodium album; [2]): 100%; pest or weed control at 1000 g/ha [1, 2]: 100%
COC(=O)c1cc(C2CC2)nc2onc(C3CC3)c12 [I.8.4]				pest or weed control at 1000 g/ha (Chenopodium album; [2]): 100%; pest or weed control at 1000 g/ha [1, 2]: 100%
C=CCSC(=O)c1cc(C2CC2)nc2onc(C)c12 [I.1.80]	98%	98%		
CCOCCOC(=O)c1cc(C2CC2)nc2onc(C)c12 [I.1.69]			100%	
CCCCOc1noc2nc(C3CC3)cc(C(=O)O)c12 [I.2.56]	100%	100%		
Cc1cc(C(=O)O)c2c(C(C)C)noc2n1 [I.7.10]				pest or weed control at 3000 g/ha (Abutilon theophrasti; application rate 3.0 kg/ha): 100%
O=C(O)c1cc(C2CC2)nc2onc(-c3cc(F)cc(F)c3)c12 [I.2.44]			100%	
COc1ccc(-c2noc3nc(C4(F)CC4)cc(C(=O)O)c23)cc1 [I.7.61]	100%	100%		
Cc1ccccc1-c1noc2nc(C3CC3)cc(C(=O)O)c12 [I.2.52]	98%	100%		
COC(=O)c1cc(C2CC2)nc2onc(C3CCC3)c12 [I.4.4]				pest or weed control at 3000 g/ha (Abutilon theophrasti; application rate 3.0 kg/ha): 100%
O=C(O)c1cc(C2CC2)nc2onc(-c3cccc(C(F)(F)F)c3)c12 [I.2.21]			100%	
O=C(O)c1cc(C2CC2)nc2onc(C3(F)CC3)c12 [I.2.46]				pest or weed control at 1000 g/ha (Chenopodium album; [2]): 98%; pest or weed control at 1000 g/ha [1, 2]: 98%
O=C(O)c1cc(C2(F)CC2)nc2onc(-c3ccccc3)c12 [I.7.62]	100%	100%		
CCCc1noc2nc(C)cc(C(=O)O)c12 [I.7.39]			100%	
CCOc1noc2nc(C3CC3)cc(C(=O)O)c12 [I.2.54]				pest or weed control at 1000 g/ha (Chenopodium album; [2]): 100%; pest or weed control at 1000 g/ha [1, 2]: 100%

SMILES	damage (Chenopodium album)	damage [1]	damage (Abutilon theophrasti; application rate 3.0 kg/ha)	other results
O=C(O)c1cc(C2CC2)nc2onc(-c3ccc(I)cc3)c12 [I.2.43]			100%	
CC(C)Oc1noc2nc(C3CC3)cc(C(=O)O)c12 [I.2.57]				pest or weed control at 1000 g/ha (Chenopodium album; [2]): 100%; pest or weed control at 1000 g/ha [1, 2]: 100%
CCOc1ccc(-c2noc3nc(C4CC4)cc(C(=O)O)c23)cc1 [I.2.62]	100%	100%		
CCc1noc2nc(C3(F)CC3)cc(C(=O)O)c12 [I.7.90]				pest or weed control at 1000 g/ha (Chenopodium album; [2]): 100%; pest or weed control at 1000 g/ha [1, 2]: 100%
CC(C)(C)c1ccc(-c2noc3nc(C4CC4)cc(C(=O)O)c23)cc1 [I.2.71]	100%	100%		
CCCc1noc2nc(C3(F)CC3)cc(C(=O)O)c12 [I.7.63]	100%	100%		
CC(C)c1ccc(-c2noc3nc(C4CC4)cc(C(=O)O)c23)cc1 [I.2.66]	100%	100%		
CC(C)(C)Oc1noc2nc(C3CC3)cc(C(=O)O)c12 [I.2.58]				pest or weed control at 1000 g/ha (Chenopodium album; [2]): 100%; pest or weed control at 1000 g/ha [1, 2]: 100%
CCCOc1noc2nc(C3CC3)cc(C(=O)O)c12 [I.2.55]	100%	100%		
Cc1noc2nc3c(c(C(=O)O)c12)CCC3 [I.8.1]				pest or weed control at 3000 g/ha (Abutilon theophrasti; application rate 3.0 kg/ha): 100%
Cc1cc(C(=O)O)c2c(C3CC3)noc2n1 [I.7.13]				pest or weed control at 3000 g/ha (Abutilon theophrasti; application rate 3.0 kg/ha): 100%
C=CCOC(=O)c1cc(C2CC2)nc2onc(C)c12 [I.1.62]				damage (Abutilon theophrasti; application rate 2.0 kg/ha): 100%
CSC(=O)c1cc(C2CC2)nc2onc(C3CC3)c12 [I.4.60]				pest or weed control at 927 g/ha (Chenopodium album; [3]): 100%; pest or weed control at 927 g/ha [1, 3]: 100%
CSC(=O)c1cc(C2CC2)nc2onc(-c3ccc(F)cc3)c12 [I.4.47]		95%		
Cc1noc2nc(C3CC3)cc(C(=O)OCC(F)F)c12 [I.1.65]	100%	100%		
COC(=O)c1cc(C2(F)CC2)nc2onc(C3CC3)c12 [I.7.53]				pest or weed control at 1000 g/ha (Chenopodium album; [2]): 90%; pest or weed control at 1000 g/ha [1, 2]: 100%
CSC(=O)c1cc(C2CC2)nc2onc(CC(C)(C)C)c12 [I.4.45]		100%		
O=C(O)c1cc(C2CC2(F)F)nc2onc(-c3ccccc3)c12 (centres unmarked) [I.7.56]	90%	80%		
CCCCCc1noc2nc(C3CC3)cc(C(=O)OC)c12 [I.4.25]			100%	
Cc1cc(C(=O)O)c2c(-c3ccco3)noc2n1 [I.7.38]				pest or weed control at 3000 g/ha (Abutilon theophrasti; application rate 3.0 kg/ha): 100%
O=C(O)c1cc(C2CC2)nc2onc(CC3CCCC3)c12 [I.2.27]				pest or weed control at 3000 g/ha (Abutilon theophrasti; application rate 3.0 kg/ha): 100%
O=C(O)c1cc(C2CC2)nc2onc(-c3ccc(OC(F)F)cc3)c12 [I.2.45]	98%	98%		
Cc1cc(C(=O)O)c2c(-c3ccccc3)noc2n1 [I.7.31]			98%	

SMILES	damage (Chenopodium album)	damage [1]	damage (Abutilon theophrasti; application rate 3.0 kg/ha)	other results
O=C(O)c1cc(C2CC2)nc2onc(CCCc3ccccc3)c12 [I.2.37]			90%	
CON(C)C(=O)c1cc(C2CC2)nc2onc(C)c12 [I.1.83]	100%	100%		
O=C(O)c1cc(C2CC2)nc2onc(CCCc3cccs3)c12 [I.2.40]				pest or weed control at 3000 g/ha (Abutilon theophrasti; application rate 3.0 kg/ha): 100%
CCc1ccc(-c2noc3nc(C4CC4)cc(C(=O)O)c23)cc1 [I.2.61]	100%	100%		
O=C(O)c1cc(C2CC2)nc2onc(CCC3CCCCC3)c12 [I.2.30]				pest or weed control at 3000 g/ha (Abutilon theophrasti; application rate 3.0 kg/ha): 100%
Cc1cc(C(=O)O)c2c(CC(C)(C)C)noc2n1 [I.7.41]			100%	
COc1ccc(CCc2noc3nc(C4CC4)cc(C(=O)O)c23)cc1 [I.2.42]			100%	
CSC(=O)c1cc(C2CC2)nc2onc(C)c12 [I.1.82]	98%	98%		
COc1noc2nc(C3CC3)cc(C(=O)O)c12 [I.2.53]				pest or weed control at 1000 g/ha (Chenopodium album; [2]): 100%; pest or weed control at 1000 g/ha [1, 2]: 100%
COC(=O)c1cc(C2CC2)nc2onc(CCc3ccccc3)c12 [I.4.5]			85%	
C=COCCOC(=O)c1cc(C2CC2)nc2onc(C)c12 [I.1.75]			100%	
CCc1cc(C(=O)O)c2c(C)noc2n1 [I.5.4]				pest or weed control at 3000 g/ha (Abutilon theophrasti; application rate 3.0 kg/ha): 85%
O=C(O)c1cc(C2CC2)nc2onc(-c3ccc(Cl)cc3)c12 [I.2.17]			100%	
COCc1noc2nc(C3CC3)cc(C(=O)O)c12 [I.2.38]			100%	
COC(=O)c1cc(C2CC2)nc2onc(CCC3CCCCC3)c12 [I.4.27]				pest or weed control at 3000 g/ha (Abutilon theophrasti; application rate 3.0 kg/ha): 100%
CC(C)CCc1noc2nc(C3CC3)cc(C(=O)O)c12 [I.2.39]			100%	
O=C(O)c1cc(C2CC2)nc2onc(-c3cccc(F)c3)c12 [I.2.31]			100%	
Cc1noc2nc(C3CC3)cc(C(=O)SCc3ccccc3)c12 [I.1.79]	85%	98%		
O=C(O)c1cc(C2CC2)nc2onc(-c3ccc(C(F)(F)F)cc3)c12 [I.2.18]			100%	
CCCCSC(=O)c1cc(C2CC2)nc2onc(C)c12 [I.1.81]	98%	98%		
CCCCOCCOCCOC(=O)c1cc(C2CC2)nc2onc(C)c12 [I.1.70]			100%	
O=C(O)c1cc(C2CC2)nc2onc(-c3cccc(Cl)c3)c12 [I.2.24]			100%	
